Measurements as given in patent US20230080054A1 (ILDONG PHARMACEUTICAL CO., LTD., priority 2021, published 2023).

Key:
human ANO6 [1] = molecular target: T1, human ANO6 (Homo sapiens, UniProt Q4KMQ2); assay: YFP quenching assay (ANO6 ion channel activity); assay type: cell-based; conditions: 10 μM ionomycin; for inhibition at 1 µM: test compound 1 μM, read-out: Inhibition Level 1 μM; for inhibition at 30 µM: test compound 30 μM, read-out: Inhibition Level 30 μM
T1 construct: expressed in transfected cells
T1 sequence (Q4KMQ2 1-931 isoform Q4KMQ2-2): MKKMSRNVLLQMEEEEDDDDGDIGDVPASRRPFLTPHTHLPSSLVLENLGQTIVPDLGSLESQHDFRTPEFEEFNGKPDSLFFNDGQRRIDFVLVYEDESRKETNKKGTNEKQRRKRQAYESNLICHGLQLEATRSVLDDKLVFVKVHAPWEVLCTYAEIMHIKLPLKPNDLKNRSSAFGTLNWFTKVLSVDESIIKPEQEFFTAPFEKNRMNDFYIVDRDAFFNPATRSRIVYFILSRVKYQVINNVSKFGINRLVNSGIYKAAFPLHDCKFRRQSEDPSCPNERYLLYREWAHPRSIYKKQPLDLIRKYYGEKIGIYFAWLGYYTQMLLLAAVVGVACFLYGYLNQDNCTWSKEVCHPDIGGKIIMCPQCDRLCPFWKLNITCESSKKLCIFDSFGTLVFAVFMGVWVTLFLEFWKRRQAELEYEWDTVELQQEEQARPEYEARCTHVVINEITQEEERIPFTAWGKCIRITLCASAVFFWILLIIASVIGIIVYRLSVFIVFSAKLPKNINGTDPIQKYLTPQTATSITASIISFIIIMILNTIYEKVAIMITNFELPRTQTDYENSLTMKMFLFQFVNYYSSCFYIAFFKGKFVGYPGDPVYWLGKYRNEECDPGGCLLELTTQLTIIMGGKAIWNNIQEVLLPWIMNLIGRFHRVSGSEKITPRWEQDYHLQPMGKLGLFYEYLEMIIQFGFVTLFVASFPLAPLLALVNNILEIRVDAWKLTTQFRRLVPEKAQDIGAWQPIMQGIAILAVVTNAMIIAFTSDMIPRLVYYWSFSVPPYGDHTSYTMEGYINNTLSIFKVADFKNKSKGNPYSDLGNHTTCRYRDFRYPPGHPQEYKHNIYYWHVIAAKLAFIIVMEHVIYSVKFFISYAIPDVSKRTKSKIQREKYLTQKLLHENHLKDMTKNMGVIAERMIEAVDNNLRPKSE
Procedure, shortened: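 FRT cells stably expressing human ANO6 and YFP-H148Q/I152L/F46L, preincubated 10 min at 40° C with compounds (1% DMSO) in PBS. Quench read every 0.4 s after injecting 140 mM SCN- with 10 μM ionomycin; % inhibition from the 3.6–7.6 s fluorescence difference, normalised to no-ionomycin (100%) and ionomycin-only (0%) wells, duplicate or triplicate.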

human ANO6 [2] = molecular target: T1, human ANO6; assay: LACT C2 assay (phosphatidylserine scramblase function assay); assay type: cell-based; conditions: FRT cells expressing human ANO6, 10 μM ionomycin; for inhibition at 0.1 µM: test compound 100 nM, read-out: Inhibition Level 100 nM; for inhibition at 1 µM: test compound 1 μM, read-out: Inhibition Level 1 μM
Procedure, shortened: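 FRT cells stably expressing human ANO6 were pretreated with compound (1% DMSO) for 10 min, then stimulated with 10 μM ionomycin for 10 min. Surface phosphatidylserine was stained with 500 nM Lact-C2-GFP and quantified by imaging. Inhibition was scaled between unstimulated (100%) and ionomycin-only (0%) controls, averaged over triplicates.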

Row | SMILES | inhibition at 1 µM (human ANO6 [1]) | inhibition at 0.1 µM (human ANO6 [2]) | inhibition at 1 µM (human ANO6 [2]) | inhibition at 30 µM (human ANO6 [1])
1 | O=C(N[C@@H]1C[C@H]1c1ccccc1)c1cccc(Nc2ccc(-c3ccccc3)cn2)c1 [Compound 115, N-[(1R,2S)-2-phenylcyclopropyl]-3-[(5-phenylpyridin-2-yl)amino]benzamide] | ≥ 60% | ≥ 60% | ≥ 60% | 
2 | Cc1ccc(CNC(=O)c2cccc(Nc3ccc(-c4ccccc4)nc3)c2)o1 [Compound 6, N-[(5-methylfuran-2-yl)methyl]-3-[(6-phenylpyridin-3-yl)amino]benzamide] | ≥ 60% |  | 30 to 60% | ≥ 60%
3 | O=C(NCC1CCCCC1)c1cccc(Nc2ccc(-c3ccccc3)nn2)c1 [Compound 31, N-(cyclohexylmethyl)-3-[(6-phenylpyridazin-3-yl)amino]benzamide] | ≥ 60% | < 30% | ≥ 60% | ≥ 60%
4 | O=C(NCCc1ccc(Cl)cc1)c1cccc(Nc2ccc(-c3ccccc3)nn2)c1 [Compound A45] | ≥ 60% | 30 to 60% | ≥ 60% | ≥ 60%
5 | O=C(NC1CCCC1)c1cccc(Nc2ccc(-c3ccccc3)nn2)c1 [Compound A63] | ≥ 60% | < 30% | < 30% | ≥ 60%
6 | CC(CCc1ccccc1)NC(=O)c1cccc(Nc2ccc(-c3ccccc3)nn2)c1 (stereo not drawn) [Compound A58] | ≥ 60% | < 30% | < 30% | ≥ 60%
7 | Cc1ccc(CNC(=O)c2cccc(Nc3ccc(-c4ccc(F)cc4)nn3)c2)o1 [Compound A1] | 30 to 60% | < 30% | < 30% | ≥ 60%
8 | O=C(NCCN1CC2CCC1C2)c1cccc(Nc2ncc(-c3ccccc3)cn2)c1 (stereo not drawn) [Compound 105, N-(2-{2-azabicyclo[2.2.1]heptan-2-yl}ethyl)-3-[(5-phenylpyrimidin-2-yl)amino]benzamide] | < 30% | < 30% | < 30% | 
9 | Cc1cccc(-c2ccc(Nc3cccc(C(=O)NCC(C)C)c3)nn2)c1 [Compound A32] | ≥ 60% | < 30% | < 30% | ≥ 60%
10 | O=C(NCCc1ccccc1)c1cccc(Nc2ccc(-c3ccccc3)cc2)c1 [Compound 50, 3-({[1,1′-biphenyl]-4-yl}amino)-N-(2-phenylethyl)benzamide] | ≥ 60% |  | 30 to 60% | 
11 | Cc1ccc(CNC(=O)c2cccc(Nc3ccc(-c4ccsc4)nn3)c2)o1 [Compound 73, N-[(5-methylfuran-2-yl)methyl]-3-{[6-(thiophen-3-yl)pyridazin-3-yl]amino}benzamide] | ≥ 60% | < 30% | ≥ 60% | 
12 | Cc1ccc(CNC(=O)c2cccc(Nc3ncc(-c4ccccc4C(F)(F)F)cn3)c2)o1 [Compound 98, N-[(5-methylfuran-2-yl)methyl]-3-({5-[2-(trifluoromethyl)phenyl]pyrimidin-2-yl}amino)benzamide] | ≥ 60% |  | 30 to 60% | 
13 | O=C(NC1CC1c1ccccc1)c1cccc(Nc2ccc(-c3ccccc3)nn2)c1 (stereo not drawn) [Compound 67, N-(2-phenylcyclopropyl)-3-[(6-phenylpyridazin-3-yl)amino]benzamide] | ≥ 60% | ≥ 60% | ≥ 60% | 
14 | O=C(Nc1cccc(F)c1)c1cccc(Nc2ccc(-c3ccccc3)nn2)c1 [Compound 29, N-(3-fluorophenyl)-3-[(6-phenylpyridazin-3-yl)amino]benzamide] | ≥ 60% | 30 to 60% | ≥ 60% | ≥ 60%
15 | COc1ccc(CNC(=O)c2cccc(Nc3ccc(-c4ccccc4)nn3)c2)cc1 [Compound A77] | ≥ 60% | < 30% | < 30% | ≥ 60%
16 | O=C(NC1CCCC1)c1cccc(Nc2ccc(-c3ccc(F)cc3)nn2)c1 [Compound A14] | ≥ 60% | < 30% | < 30% | ≥ 60%
17 | Cc1ccc(CNC(=O)c2cccc(Nc3ccc(-c4ccccc4)nn3)c2)s1 [Compound 40, N-[(5-methylthiophen-2-yl)methyl]-3-[(6-phenylpyridazin-3-yl)amino]benzamide] | ≥ 60% | < 30% | ≥ 60% | ≥ 60%
18 | O=C(NCCCc1ccccc1)c1cccc(Nc2ncc(-c3cccc(F)c3)cn2)c1 [Compound 60, 3-{[5-(3-fluorophenyl)pyrimidin-2-yl]amino}-N-(3-phenylpropyl)benzamide] | ≥ 60% | 30 to 60% | ≥ 60% | 
19 | Cc1ccc(CNC(=O)c2cccc(Nc3ncc(-c4ccccc4)cn3)c2)o1 [Compound 2, N-[(5-methylfuran-2-yl)methyl]-3-[(5-phenylpyrimidin-2-yl)amino]benzamide] | 30 to 60% | < 30% | ≥ 60% | ≥ 60%
20 | O=C(NC1CCCCCC1)c1cccc(Nc2ccc(-c3ccc(F)cc3)nn2)c1 [Compound A3] | ≥ 60% | < 30% | ≥ 60% | ≥ 60%
21 | O=C(NCCc1ccccc1)c1cccc(Nc2ccc(-c3cccc(F)c3)cn2)c1 [Compound 121, 3-{[5-(3-fluorophenyl)pyridin-2-yl]amino}-N-(2-phenylethyl)benzamide] | ≥ 60% |  | 30 to 60% | 
22 | O=C(NCCCc1ccccc1)c1cccc(Nc2ccc(-c3ccc(F)cc3)nn2)c1 [Compound A6] | ≥ 60% | < 30% | < 30% | ≥ 60%
23 | O=C(NCCc1ccccc1)c1cccc(Nc2ccc(-c3ccccc3)cn2)c1 [Compound 114, N-(2-phenylethyl)-3-[(5-phenylpyridin-2-yl)amino]benzamide] | ≥ 60% | < 30% | ≥ 60% | 
24 | Cc1ccc(CNC(=O)c2cccc(Nc3ccc(-c4cscc4C)nn3)c2)o1 [Compound 74, N-[(5-methylfuran-2-yl)methyl]-3-{[6-(4-methylthiophen-3-yl)pyridazin-3-yl]amino}benzamide] | ≥ 60% | 30 to 60% | ≥ 60% | 
25 | Cc1ccc(CNC(=O)c2cccc(Nc3ccc(-c4cccc(F)c4)nn3)c2)o1 [Compound A87] | ≥ 60% |  | 30 to 60% | 
